Test results from the supplement of paper PMC10307832.

Assays:
Test in all cases: relative viability (nuclei count vs DMSO), 5 days (fraction); higher = more cells survive
[1] = compound: N[C@@H]1CCCN(c2c(/C=C3\SC(=O)NC3=O)cccc2-c2ccccc2)C1 [AZD1208] + CS(=O)(=O)N1CCN(Cc2cc3nc(-c4cccc5[nH]ncc45)nc(N4CCOCC4)c3s2)CC1 [Pictilisib] (partner 1 µM)
Procedure, shortened: (§1)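 Each reported value is a median over duplicate plates. It expresses relative viability: treated-well nuclei count divided by vehicle-well nuclei count. Lung cancer cell lines in 1536-well plates were dosed by pin tool a day after seeding, alone with one drug or with a fixed anchor-drug dose plus five library-drug doses (not always all listed) in √10 steps, and nuclei were counted after 5 days.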

[2] = compound: CN1CCN(CC1)C2=CC(=C(C=C2)NC3=NC(=C(S3)C(=O)C4=C(C=CC=C4Cl)Cl)N)OC [XMD14-99] + COc1cc2c(Oc3ccc(NC(=O)C4(C(=O)Nc5ccc(F)cc5)CC4)cc3F)ccnc2cc1OCCCN1CCOCC1 [Foretinib] (partner 0.25 µM)
Procedure, shortened: as §1

[3] = compound: N[C@@H]1CCCN(c2c(/C=C3\SC(=O)NC3=O)cccc2-c2ccccc2)C1 [AZD1208] + CC(=O)Nc1cccc(-n2c(=O)n(C3CC3)c(=O)c3c(Nc4ccc(I)cc4F)n(C)c(=O)c(C)c32)c1 [Trametinib] (partner 0.02 µM)
Procedure, shortened: as §1

[4] = compound: CN1CCN(CC1)C2=CC(=C(C=C2)NC3=NC(=C(S3)C(=O)C4=C(C=CC=C4Cl)Cl)N)OC [XMD14-99] + C[C@@H](Oc1cc(-c2cnn(C3CCNCC3)c2)cnc1N)c1c(Cl)ccc(F)c1Cl [Crizotinib] (partner 1 µM)
Procedure, shortened: as §1

Cell Line | relative viability ([1]; first compound 0.08 µM) | relative viability ([1]; first compound 0.253 µM) | relative viability ([1]; first compound 0.8 µM) | relative viability ([1]; first compound 2.53 µM) | relative viability ([1]; first compound 8 µM) | relative viability ([2]; first compound 0.08 µM) | relative viability ([2]; first compound 0.8 µM) | relative viability ([2]; first compound 2.53 µM) | relative viability ([2]; first compound 8 µM) | relative viability ([3]; first compound 0.08 µM) | relative viability ([3]; first compound 0.253 µM) | relative viability ([3]; first compound 0.8 µM) | relative viability ([3]; first compound 2.53 µM) | relative viability ([3]; first compound 8 µM) | relative viability ([4]; first compound 0.08 µM) | relative viability ([4]; first compound 0.8 µM) | relative viability ([4]; first compound 2.53 µM) | relative viability ([4]; first compound 8 µM)
EKVX | 0.395 | 0.421 | 0.349 | 0.375 | 0.365 | 0.768 | 0.888 | 0.876 | 0.662 | 0.35 | 0.387 | 0.306 | 0.309 | 0.45 | 0.976 | 0.808 | 0.898 | 0.741
NCI-H358 | 0.35 | 0.284 | 0.333 | 0.299 | 0.283 | 0.759 | 0.745 | 0.574 | 0.392 | 0.118 | 0.109 | 0.12 | 0.12 | 0.102 | 0.661 | 0.733 | 0.576 | 0.302
EPLC-272H | 0.362 | 0.278 | 0.349 | 0.324 | 0.271 | 0.748 | 0.764 | 0.684 | 0.444 | 0.312 | 0.268 | 0.279 | 0.254 | 0.315 | 0.923 | 0.813 | 1.04 | 0.927
NCI-H2228 | 0.207 | 0.328 | 0.381 |  | 0.285 | 0.994 | 0.806 | 0.83 | 0.444 | 0.578 | 0.669 | 0.36 | 0.525 | 0.343 | 0.37 | 0.447 | 0.48 | 0.301
LXF-289 | 0.706 | 0.724 | 0.73 | 0.699 | 0.724 | 0.964 | 0.949 | 0.923 | 0.898 | 0.678 | 0.629 | 0.673 | 0.694 | 0.747 | 0.814 | 0.802 | 0.814 | 0.712
